Eight molecules from patent publication US7297704B2, “Cycloalkyfused indole, benzothiophene, benzofuran and idene derivatives” (Wyeth, priority 2005, dated 2007) can be followed below.

For data set [1], the target named is T1, Human 5-HT1A Receptor (Homo sapiens, UniProt P08908).
T1 construct: expressed in transfected cells; host or cells: CHO cells
T1 sequence (P08908 1-422): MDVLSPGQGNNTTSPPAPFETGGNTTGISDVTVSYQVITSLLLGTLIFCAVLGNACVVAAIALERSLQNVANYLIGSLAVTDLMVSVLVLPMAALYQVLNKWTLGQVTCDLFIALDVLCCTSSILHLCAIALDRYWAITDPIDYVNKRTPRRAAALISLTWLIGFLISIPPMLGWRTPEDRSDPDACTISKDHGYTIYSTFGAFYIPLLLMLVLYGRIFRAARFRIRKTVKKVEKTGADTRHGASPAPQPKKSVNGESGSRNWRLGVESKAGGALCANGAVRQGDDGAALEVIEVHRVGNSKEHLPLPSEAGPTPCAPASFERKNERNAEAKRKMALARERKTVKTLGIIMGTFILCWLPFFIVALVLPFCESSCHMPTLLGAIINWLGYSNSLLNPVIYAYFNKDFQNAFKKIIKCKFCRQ
The data set is described as follows: 8-OH-DPAT binding, human 5-HT1A receptor cell line. To be noted: stably transfected CHO cells, 8-OH-DPAT ligand 1.5 nM; read-out: h5-HT1A Affinity, Ki. The procedure, abridged: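 Membranes from CHO cells stably expressing human 5-HT1A, incubated 30 min at room temperature in 50 mM Tris pH 7.5 with 1.5 nM radioligand (8-OH-DPAT). Non-specific binding defined with […]; filtration on PEI-soaked GF/B filters. Single-point inhibition at […], then Ki for actives.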

The target of the next data set is T2, serotonin transporter (Rattus norvegicus, UniProt P31652).
T2 construct: frontal cortical membranes prepared from male S.D. rats; from tissue; host or cells: rat frontal cortex membranes (male Sprague-Dawley)
T2 sequence (P31652 whole entry): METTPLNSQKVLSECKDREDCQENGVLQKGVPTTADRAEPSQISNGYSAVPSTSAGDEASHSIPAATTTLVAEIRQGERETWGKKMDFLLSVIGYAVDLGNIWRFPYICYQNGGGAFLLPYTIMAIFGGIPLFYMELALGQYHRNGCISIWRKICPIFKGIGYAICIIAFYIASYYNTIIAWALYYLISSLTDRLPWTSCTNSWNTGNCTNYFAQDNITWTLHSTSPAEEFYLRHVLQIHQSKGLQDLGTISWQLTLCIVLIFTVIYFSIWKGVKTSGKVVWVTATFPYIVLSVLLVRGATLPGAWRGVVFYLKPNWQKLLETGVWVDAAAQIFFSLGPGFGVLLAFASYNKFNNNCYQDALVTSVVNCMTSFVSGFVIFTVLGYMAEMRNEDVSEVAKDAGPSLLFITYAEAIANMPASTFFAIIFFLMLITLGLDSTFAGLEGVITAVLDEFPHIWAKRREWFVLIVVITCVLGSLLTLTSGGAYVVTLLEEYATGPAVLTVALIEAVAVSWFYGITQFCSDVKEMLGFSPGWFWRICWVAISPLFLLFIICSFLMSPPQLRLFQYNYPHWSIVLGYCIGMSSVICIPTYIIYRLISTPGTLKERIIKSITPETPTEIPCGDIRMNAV
Briefly: 3H-paroxetine binding to the serotonin transporter, rat frontal cortical membranes. The following applies: values printed without parentheses, 3H-paroxetine 0.1 nM, read-out: rb-5-HH-T, Ki. Put shortly: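 Male Sprague-Dawley rat frontal cortical membranes incubated with 0.1 nM ³H-paroxetine for 60 min at 25 °C, test compound at one to eight concentrations; 10 μM fluoxetine defined specific binding. Filtration separated bound ligand, counted by scintillation. IC50 from nonlinear regression, converted to Ki by Cheng–Prusoff.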

The target in the next data set is h-5-HT-T (Homo sapiens, UniProt P31645). Briefly: h-5-HT-T IC50 (Table 1, no method described).
Sequence of h-5-HT-T (P31645 whole entry): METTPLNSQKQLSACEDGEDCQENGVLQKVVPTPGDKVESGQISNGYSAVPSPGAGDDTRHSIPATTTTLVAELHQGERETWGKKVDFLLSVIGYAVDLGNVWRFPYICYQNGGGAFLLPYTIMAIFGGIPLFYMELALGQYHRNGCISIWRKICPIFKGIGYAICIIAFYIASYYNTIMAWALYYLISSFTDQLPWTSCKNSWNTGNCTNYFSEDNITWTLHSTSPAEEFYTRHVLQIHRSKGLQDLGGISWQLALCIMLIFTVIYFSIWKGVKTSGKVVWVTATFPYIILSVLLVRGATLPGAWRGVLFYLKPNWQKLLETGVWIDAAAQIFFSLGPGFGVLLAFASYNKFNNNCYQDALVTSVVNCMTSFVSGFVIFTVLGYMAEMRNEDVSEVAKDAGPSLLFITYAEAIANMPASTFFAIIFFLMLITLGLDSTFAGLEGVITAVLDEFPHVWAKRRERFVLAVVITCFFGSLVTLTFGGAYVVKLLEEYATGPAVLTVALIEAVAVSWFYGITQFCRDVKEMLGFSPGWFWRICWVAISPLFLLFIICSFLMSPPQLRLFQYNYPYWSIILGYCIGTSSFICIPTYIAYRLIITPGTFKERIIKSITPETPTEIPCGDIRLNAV
The target of data set [2] is T1, Human 5-HT1A Receptor. The data set is described as follows: cAMP RIA in human 5-HT1A receptor cell line. In kind it is cell-based. The following applies: CHO cells; for EC50: superscript a, read-out: c-AMP, (EC50)^a; for EC50 / Emax: forskolin stimulated cAMP; for Emax: superscript c, read-out: c-AMP, (Emax)^c. Put shortly: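 Stably transfected CHO cells preincubated in Krebs with 500 uM IBMX, then given forskolin (1 uM final) and test compound (0.1 and 1 uM initial screen) for 10 min at 37° C; cAMP measured by RIA as % inhibition. Antagonist mode: 6 concentrations preincubated 20 min before agonist plus forskolin; IC50 for reversal.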

Data set [3] concerns the target T3, cloned human 5-HT1A receptors (Homo sapiens, UniProt P08908).
T3 construct: expressed in transfected cells
T3 sequence (P08908 1-422): T1 sequence (P08908 1-422)
Briefly: 35S-GTPγS binding assay. The following applies: for IC50: superscript b, reversal of 8-OH-DPAT effect; for Imax (maximum inhibitory effect): superscript d. Format: biochemical. The text has this: The ^35S-GTPγS binding assay similar to that used by Lazareno and Birdsall (Br. J. Pharmacol., 1993, 109: 1120) was used to determine the test compound's ability to affect the binding of ^35S-GTPγS to membranes containing cloned human 5-HT1A receptors. Agonists produce an increase in binding whereas antagonists produce no increase but rather reverse the effects of the standard agonist 8-OH-DPAT. The test compound's maximum stimulatory effect is represented as the Emax, while its potency is defined by the EC50. The test compound's maximum inhibitory effect is represented as the Imax, while its potency is defined by the IC50. […] was used to determine maximum agonist or antagonist response.
In general terms: GTPγS resists hydrolysis and so accumulates on activated G proteins.

Counter-ions that a name gives are not always drawn.

On to `Cc1ccc2c3c(ccc2n1)OC[C@H](CNC1CCc2c([nH]c4ccccc24)C1)O3.Cl.Cl` (mixture of isomers) [Example 43, N-{[(2S)-8-methyl-2,3-dihydro[1,4]dioxino[2,3-f]quinolin-2-yl]methyl}-2,3,4,9-tetrahydro-1H-carbazol-2-amine dihydrochloride], for which the melting point is 117 to 118 °C (dec.). For the same molecule, the Ki on Human 5-HT1A Receptor [1] was determined as 432 nM. Besides, the Ki at serotonin transporter was 45.1 nM. The IC50 on h-5-HT-T was 19.3 ± 2.51 nM. Also, on Human 5-HT1A Receptor [2], the EC50 is 233 nM and the Emax worked out at 61%. Also, in data set [3], the IC50 worked out at 197 nM and the Imax (maximum inhibitory effect) amounted to 98.5%.
As for `Cc1ccc2c3c(ccc2n1)OC[C@H](CNCC[C@H]1CCc2[nH]c4ccc(F)cc4c2C1)O3` (single isomer, unassigned) [Example 42, dihydrochloride], the Ki at Human 5-HT1A Receptor [1] amounted to 751 nM; on serotonin transporter, 58 nM. The 50% inhibitory concentration (IC50) against h-5-HT-T worked out at 2.8 ± 0.12 nM; in data set [3], 351 nM. In addition, the EC50 on Human 5-HT1A Receptor [2] was 36.4 nM; in data set [3] (superscript a, potency of stimulatory effect), 63 nM. In addition, the maximum response (Emax) on Human 5-HT1A Receptor [2] is 87%; in data set [3] (superscript c, maximum stimulatory effect), 39%. Moreover, in data set [3], the Imax (maximum inhibitory effect) came to 71%.
On to `Cc1ccc2c3c(ccc2n1)OC[C@H](CN[C@H]1CCc2c([nH]c4ccccc24)C1)O3` (single isomer, unassigned) [Example 45, dihydrochloride], for which the results for the inhibitory constant (Ki) at Human 5-HT1A Receptor [1] and on serotonin transporter were 365 nM and 34.3 nM, respectively. The IC50 against h-5-HT-T amounted to 38.95 ± 0.18 nM; in data set [3], 461 nM. Also, on Human 5-HT1A Receptor [2], the half-maximal effective concentration (EC50) was 157 nM. In addition, the Emax on Human 5-HT1A Receptor [2] amounted to 59%.
For `CCN(CC1CCc2[nH]c3ccc(F)cc3c2C1)C[C@H]1COc2ccc3nc(C)ccc3c2O1` (stereo partly drawn) [Example 50, N-[(6-Fluoro-2,3,4,9-tetrahydro-1H-carbazol-3-yl)methyl]-N-{[(2S)-8-methyl-2,3-dihydro[1,4]dioxino[2,3-f]quinolin-2-yl]methyl}ethanamine dihydrochloride dihydrate], the results for the Ki on Human 5-HT1A Receptor [1] and at serotonin transporter were 226 nM and 26.9 nM, respectively. The IC50 turned out to be 5.73 ± 0.33 nM against h-5-HT-T; 137 nM on Human 5-HT1A Receptor [2] (superscript b, reversal of agonist activity, read-out: c-AMP, (IC50)^b); 179 nM in data set [3]. Moreover, in data set [3], the Imax (maximum inhibitory effect) is 100%.
On to `Cc1ccc2c3c(ccc2n1)OC[C@H](CN(CC1CC1)CC1CCc2[nH]c4ccc(F)cc4c2C1)O3` (stereo partly drawn) [Example 52, (Cyclopropylmethyl)[(6-fluoro-2,3,4,9-tetrahydro-1H-carbazol-3-yl)methyl]{[(2S)-8-methyl-2,3-dihydro[1,4]dioxino[2,3-f]quinolin-2-yl]methyl}amine dihydrochloride dihydrate], for which the Ki on Human 5-HT1A Receptor [1] is 936 nM. Further, the inhibition constant Ki at serotonin transporter came to 670 nM. This molecule also showed an IC50 on h-5-HT-T of 19.5 ± 0.28 nM. On Human 5-HT1A Receptor [2], the concentration for a half-maximal effect (EC50) was 312 nM and the Emax was 70%. In data set [3], the IC50 is 1580 nM and the Imax (maximum inhibitory effect) worked out at 100%.
As for `CCCN(C[C@@H]1CCc2[nH]c3ccc(F)cc3c2C1)C[C@H]1COc2ccc3nc(C)ccc3c2O1` [Example 54, N-{[(3R)-6-Fluoro-2,3,4,9-tetrahydro-1H-carbazol-3-yl]methyl}-N-{[(2S)-8-methyl-2,3-dihydro[1,4]dioxino[2,3-f]quinolin-2-yl]methyl}propan-1-amine dihydrochloride dihydrate], at Human 5-HT1A Receptor [1], the Ki was determined as 617 nM. Moreover, the Ki at serotonin transporter came out at 96.5 nM. On h-5-HT-T, this molecule displayed a concentration for half-maximal inhibition (IC50) of 16.6 ± 0.85 nM. For the same molecule, at Human 5-HT1A Receptor [2], the EC50 turned out to be 177 nM and the Emax amounted to 48%. In addition, in data set [3], the IC50 stood at 581 nM and the Imax (maximum inhibitory effect) stood at 63%.
On to `Cc1ccc2c3c(ccc2n1)OC[C@H](CN(CC1CC1)C[C@@H]1CCc2[nH]c4ccc(F)cc4c2C1)O3` [Example 55, (Cyclopropylmethyl){[(3R)-6-fluoro-2,3,4,9-tetrahydro-1H-carbazol-3-yl]methyl}{[(2S)-8-methyl-2,3-dihydro[1,4]dioxino[2,3-f]quinolin-2-yl]methyl}amine dihydrochloride dihydrate], for which the results for the Ki at Human 5-HT1A Receptor [1] and at serotonin transporter were 850 nM and 110 nM, respectively. Besides, the IC50 at h-5-HT-T stood at 8.5 ± 0.18 nM; in data set [3] it was 1130 nM. Further, the EC50 at Human 5-HT1A Receptor [2] came to 211 nM. The maximum response (Emax) on Human 5-HT1A Receptor [2] is 67%. For the same molecule, in data set [3], the Imax (maximum inhibitory effect) was 74%.
For `Cc1ccc2c3c(ccc2n1)OC[C@H](CN(C[C@@H]1CCc2[nH]c4ccc(F)cc4c2C1)C1CCC1)O3` [Example 56, N-{[(3R)-6-Fluoro-2,3,4,9-tetrahydro-1H-carbazol-3-yl]methyl}-N-{[(2S)-8-methyl-2,3-dihydro[1,4]dioxino[2,3-f]quinolin-2-yl]methyl}cyclobutanamine dihydrochloride dihydrate], the Ki stood at 1730 nM at Human 5-HT1A Receptor [1] and 127 nM on serotonin transporter. In addition, the IC50 amounted to 18.1 ± 0.39 nM against h-5-HT-T and 3100 nM in data set [3]. Besides, the EC50 on Human 5-HT1A Receptor [2] was 154 nM. The Emax at Human 5-HT1A Receptor [2] turned out to be 69%.

As a reminder, the Ki is the equilibrium dissociation constant of an inhibitor or competing ligand from its target. What is called IC50 is the midpoint of a concentration-inhibition curve. What is called EC50 is the concentration that produces a half-maximal response. By Emax is commonly meant the maximal effect, on the per cent scale that the assay sets. As a reminder, the melting point is the temperature, or range, at which the solid turns liquid.
